Laboratory results as given in patent US10072014B2 (Janssen Pharmaceutica NV, priority 2014, dated 2018).
Read-outs that look alike come from different tables or passages of the source.

Key:
rats = experiment: Reversal of the effect of the mGluR2 PAM JNJ-42153605-induced inhibition of scopolamine-induced hyperlocomotion; format: in vivo; details: Rattus norvegicus, PO
Method: 2) Reversal of the Effect of the mGluR2 PAM JNJ-42153605-induced Inhibition of Scopolamine-induced Hyperlocomotion Apparatus
Motor activity was measured in microprocessor-based motor activity arenas (closed gray PVC cylinders with a height of 39 cm and a diameter of 31 cm). Each arena was placed on an infrared LED (8×8 LEDs) lit box (white PVC squared box; 40×40 cm^2; height 12.5 cm. An infrared-sensitive tube camera and a white light source were mounted to the ceiling above the observation chamber to track the animal. The total distance traveled (cm) was recorded and analyzed using the Noldus Ethovision XT Video Tracking System (Version 7.0.418; Noldus, Wageningen, The Netherlands). The intensity of the light within the activity cages (measured in the centre at the level of the floor) ranged between 4 and 8 LUX.
The rats were pretreated with test compound or vehicle at 60 min before the start of the activity recordings and placed into individual cages. The rats were challenged with JNJ-42153605 (3-(cyclopropylmethyl)-7-(4-phenylpiperidin-1-yl)-8-(trifluoromethyl)-[1,2,4]triazolo[4,3-a]pyridine; WO2010/130424; Cid et al. J. Med. Chem. 2012, 55, 8770-8789) (20 mg/kg, i.v.) 30 min before the start of the activity recording combined with scopolamine (0.16 mg/kg, i.v.) just before the start of the activity measurements. Immediately after the injection of scopolamine, the rats were placed into the activity monitors and total distance traveled over the first 30 min was measured.
Solvent-pretreated Control Rats.
Animals receiving the combination of JNJ-42153605 and scopolamine (n=433) almost always traveled a distance of less than 1500 cm (<1500 cm) (only 2.5% of the control rats traveled a distance of more than 1500 cm (>1500 cm)). On the other hand, animals challenged with scopolamine alone (n=215) always traveled a total distance of more than 1500 cm (>1500 cm) and almost always (in 95.8% of the rats) a distance of more than 4400 cm (>4400 cm). […] For reversal of the inhibitory effect of JNJ-42153605 on the scopolamine-induced hyperlocomotion, the following all-or-none criteria were adopted: (1) reversal: total distance>1500 cm.

Cc1ncc(-c2cnn3c2C(=O)N(c2ccc(C(F)(F)F)c(Cl)c2)C[C@@H]3C)[nH]1 [Compound 27]
melting point: 188.27 °C | ED50 (rats; criterion for reversal: total distance >1500 cm, read-out: ED50 SCOP JNJ-42153605): > 2.5 mg/kg | ED50 (rats; more sensitive criterion for reversal: total distance >1300 cm, read-out: ED50 SCOP JNJ-42153605, more sensitive criterion): 1.25 mg/kg
